Counter-ions that a name gives are not always drawn.
Tested on: adjuvant arthritis caused by the injection of a Mycobacterium tuberculosis adjuvant
Test: Adjuvant Arthritis Test (Test Example 2)
Assay type: in vivo, SD male rats
Settings: SD rats, subcutaneous 5 mg per Kg, 9 times; average value from 16th to 20th days; left hind leg; * P<0.05, ** P<0.01 vs control
Description: The adjuvant arthritis in rats caused by the injection of a Mycobacterium tuberculosis adjuvant is often utilized for a model test of chronic rheumatoid arthritis in human.
The mechanism of manifestation of this disease has not completely been elucidated, but it is known that cellular immunity plays an important role. The immuno-modulating activity of the compounds of the present invention was investigated in accordance with this known adjuvant arthritis test.
8-Week-old SD male rats were used for the test. In 0.1 ml of fluid paraffin, 0.4 mg of dry dead cells of Mycobacterium tuberculosis were suspended, and the suspension was injected under the heel skin of the right hind leg of each rat. Each of the compounds of the present invention was subcutaneously administered 9 times in total before and after the injection of the adjuvant. Each of the compounds of the present invention was dissolved or suspended in a 0.2% solution of carboxymethylcellulose in physiological saline and administered to each rat at a dose of 5 mg per Kg of the body weight. The swollen volume of the left hind leg was measured during the period of from the day of injection to the day of completion of the test, and the swelling ratio was calculated. For comparison, a similar test was conducted using Levamisole hydrochloride. F.t tests were carried out on the test results obtained.

Row | Compound | Swell suppression ratio to control group [%]
1 | c1ccc([C@H]2CN3CCSC3=N2)cc1 [Levamisole.HCl, Levamisole hydrochloride, reference compound] | 19.8
2 | O=C(Nc1nc(-c2ccccc2)cs1)Nc1nc(-c2ccccc2)cs1 [drawing 14] | 35.7
3 | Cc1ccc(-c2csc(NC(=O)Nc3nc(-c4ccc(C)cc4)cs3)n2)cc1 [drawing 15] | 29.3
4 | COc1ccc(-c2csc(NC(=O)Nc3nc(-c4ccc(OC)cc4)cs3)n2)cc1 [drawing 16] | 37.5
5 | CSc1sc(NC(=O)Nc2nc(-c3ccccc3)c(SC)s2)nc1-c1ccccc1 [drawing 17] | 28.8
6 | Cc1cc(NC(=O)Nc2nc(-c3ccccc3)cs2)no1 [drawing 18] | 26.6
7 | O=C(Nc1ccccn1)Nc1nc(-c2ccccc2)cs1 [drawing 19] | 34.6

Tested on: ddY male mice
Test: Acute Toxicity Test through Oral Administration (Test Example 3)
Assay type: in vivo
Settings: observed for 7 days
Description: To each of a group of five ddY male mice, was orally administered a medicine dissolved or suspended in physiological saline.

Row | Compound | estimated LD50 [mg/kg]
8 | c1ccc([C@H]2CN3CCSC3=N2)cc1 [Levamisole.HCl, Levamisole hydrochloride, reference compound] | 200 to 300

Tested on: delayed hypersensitivity induced by picryl chloride
Test: Reinforcement Test of Delayed Hypersensitivity (Test Example 1)
Assay type: in vivo, ICR male mice
Settings: ICR mice, oral 50 mg per Kg simultaneously with sensitization; 24 hours after challenging; average of both pinnae of eight mice; * P<0.05, ** P<0.01 vs control
Description: The delayed hypersensitivity induced on a mouse when picryl chloride(2-chloro-1,3,5-trinitrobenzene) is coated on the skin of the mouse is known as a typical cellular immunity.
This test system was used for the reinforcement tests of the delayed hypersensitivity.
Groups of eight ICR male mice, each having a body weight of about 30 g or so, were used for the test.
Sensitization was effected by coating a 3% solution of picryl chloride in a 4/1 mixture of olive oil and acetone on the shaved abdomen of each of the mice.
Simultaneously with the sensitization, a solution or suspension of a compound of the present invention dissolved or suspended in a 0.2% solution of carboxymethylcellulose in a physiological saline was orally administered to the mouse at a dose of 50 mg per Kg of its body weight. To each mouse of a control group, was similarly administered a 0.2% carboxymethylcellulose solution in a physiological saline.
The delayed hypersensitivity was induced 7 days after the sensitization by pinching each of the pinnae of each mouse with a pair of forceps whose tip portions were wrapped with a felt impregnated with a 1% solution of picryl chloride in olive oil and coating the pinnae with the solution. The thickness of each pinna was measured before the challenging and 24 hours after the challenging and the ratio of increase of the thickness (average value of both of the pinnae of the eight mice) is shown in Table 1.
For comparison, a similar test was carried out using Levamisole hydrochloride. The results thereof are also shown.
F.t tests were carried out on the thus-obtained test results.

Row | Compound | Ratio of Increase of Pinna Thickness [%]
9 | c1ccc([C@H]2CN3CCSC3=N2)cc1 [Levamisole.HCl, Levamisole hydrochloride, reference compound] | 31.2
10 | O=C(Nc1nc(-c2ccccc2)cs1)Nc1nc(-c2ccccc2)cs1 [drawing 8] | 37.5
11 | Cc1ccc(-c2csc(NC(=O)Nc3nc(-c4ccc(C)cc4)cs3)n2)cc1 [drawing 9] | 36.1
12 | COc1ccc(-c2csc(NC(=O)Nc3nc(-c4ccc(OC)cc4)cs3)n2)cc1 [drawing 10] | 31.7
13 | CSc1sc(NC(=O)Nc2nc(-c3ccccc3)c(SC)s2)nc1-c1ccccc1 [drawing 11] | 29.0
14 | Cc1cc(NC(=O)Nc2nc(-c3ccccc3)cs2)no1 [drawing 12] | 37.8
15 | O=C(Nc1ccccn1)Nc1nc(-c2ccccc2)cs1 [drawing 13] | 25.4
